Assay results published in patent US8940716B2, “Bicyclic heteroaryl compounds as GPR119 modulators” (Bristol-Myers Squibb Company, priority 2010, dated 2015).

Target: T1, human-mouse chimeric GPR119 (Homo sapiens, UniProt Q8TDV5, A235T/C313R/C323Y/E253K/F304I/F307L/G211A/G245S/H255C/K284R/L224V/L258Q/L288Q/L301F/P218V/P318T/Q252H/R262K/S214P/S219N/S228A/S309P/S322A/T217S/T239S/V227I/V300F)
T1 construct: the first 198 amino acids of human GPR119; the C-terminal 137 amino acids of the mouse receptor; expressed in transfected cells
T1 sequence (Q8TDV5 with tags, fused parts or gaps G211A/S214P/T217S/P218V/S219N/L224V/V227I/S228A/A235T/T239S/G245S/Q252H/E253K/H255C/L258Q/R262K/K284R/L288Q/V300F/L301F/F304I/F307L/S309P/C313R/P318T/S322A/C323Y): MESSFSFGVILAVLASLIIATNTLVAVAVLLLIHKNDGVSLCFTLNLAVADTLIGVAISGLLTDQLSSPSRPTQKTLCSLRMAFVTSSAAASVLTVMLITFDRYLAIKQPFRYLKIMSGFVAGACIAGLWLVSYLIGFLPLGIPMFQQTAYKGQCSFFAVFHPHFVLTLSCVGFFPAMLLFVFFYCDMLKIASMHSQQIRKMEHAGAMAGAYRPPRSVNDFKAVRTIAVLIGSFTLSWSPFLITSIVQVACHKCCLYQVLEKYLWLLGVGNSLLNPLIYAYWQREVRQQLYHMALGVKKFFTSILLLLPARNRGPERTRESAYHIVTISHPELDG
Experiment: Tet-inducible cAMP assay
Assay type: cell-based
Conditions: cAMP accumulation (HTRF), Flp-In-T-Rex-HEK293 cells expressing chimeric human/mouse GPR119, 50 min incubation; read-out: GPR119 EC50
Protocol: The in vitro modulation of recombinant human GPR119 was determined as follows.
A human-mouse chimeric GPR119 expression construct encoding 3 copies of the FLAG epitope tag, the first 198 amino acids of human GPR119 and the C-terminal 137 amino acids of the mouse receptor was cloned into a tetracycline inducible vector pcDNA5/FRT/TO (Invitrogen #V6520-20), which includes a hygromycin-resistance marker. Tightly controlled receptor expression was achieved by stable integration of this construct into the genome of a specific host cell line, Flp-In-T-Rex-HEK293, expressing the tetracycline repressor (Invitrogen). Once a stable hygromycin-resistant cell line was generated, the cells were maintained at 37° C. in a humidified 5% CO2 atmosphere in culture medium consisting of Dulbecco's modified Eagle's medium (DMEM; Invitrogen #11960) supplemented with 2 mM L-glutamine, 10% fetal bovine serum, 200 μg/ml hygromycin B, and 15 μg/ml blasticidin.
Forty-eight hours prior to the cAMP accumulation assay, cells stably expressing the chimeric human/mouse GPR119 construct were seeded at a density of 4×10^3 cells/well in 384 well poly-D-lysine coated solid white plates (BD #35-6661) and grown at 37° C. in a humidified 5% CO2 atmosphere in culture medium supplemented with 1 μg/ml tetracycline to induce expression of the receptor. On the day of the assay, medium was removed and cells were incubated for 50 min. at 37° C. in a humidified 5% CO2 atmosphere in 20 μl/well of assay buffer (phosphate-buffered saline with Ca^2+ and Mg^2+, 12 mM glucose, 0.1 mM isobutyl-methyl-xanthine, 0.1% fatty-acid free bovine serum albumin) with the desired concentration of compound added from a concentrated stock dissolved in dimethyl sulfoxide (DMSO) to give a final concentration of 1% DMSO in the assay. cAMP accumulation was measured using the CisBio homogeneous time resolved fluorescence (HTRF) assay kit (#62AM2PEC) following the manufacturer's protocol. Briefly, 10 μl each of the cAMP-HTRF fluorescence detection reagents were added to each well, and the samples were incubated for 40 min. at room temperature. Fluorescence was excited at 320 nm and measured at 665 and 620 nm using the Envision instrument (Perkin Elmer), the fluorescence ratio of 665/620 was calculated and converted to nanomolar concentrations of cAMP in each well by interpolation from a cAMP standard curve. The concentration-response curves and EC50 values were calculated with a four parameter logistic curve fit equation utilizing Excel/XLfit software (Microsoft and IDBS). The EC50 value was calculated as the concentration of agonist which increased the cAMP concentration to a value halfway between the baseline and the maximum.
Compounds of the present invention were tested in the Tet-inducible cAMP assay described immediately above and the results shown in Table 2 below were obtained.

CCCc1cnc(N2CCC(Oc3nc4ccc(C5=CCN(S(=O)(=O)CCN6CCCC6)CC5)cc4s3)CC2)nc1 [Example 134]
EC50: 55.6 nM

CCCc1cnc(N2CCC(Cc3nc4ccc(N5CCN(S(=O)(=O)CCC(=O)OC)CC5)cc4o3)CC2)nc1 [Example 144]
EC50: 675 nM

CC(C)(O)CCS(=O)(=O)N1CC=C(c2ccc3nc(OC4CCN(c5ncc(Cl)cn5)CC4)sc3c2)CC1 [Example 118]
EC50: 3.6 nM

CCCc1cnc(N2CCC(Oc3nc4ccc(C5=CCN(S(=O)(=O)CCC(C)(C)OC(=O)CCC(=O)O)CC5)cc4s3)CC2)nc1 [Example 39, 4-(2-methyl-4-(4-(2-(1-(5-Propylpyrimidin-2-yl)piperidin-4-yloxy)benzo[d]thiazol-6-yl)-5,6-dihydropyridin-1(2H)-ylsulfonyl)butan-2-yloxy)-4-oxobutanoic acid]
EC50: 25 nM

CCCS(=O)(=O)N1CC=C(c2ccc3nc(OC4CCN(C(C)=O)CC4)sc3c2)CC1 [Example 92]
EC50: 839 nM

CC(C)OC(=O)N1CCC(Oc2nc3ccc(C4=CCN(C(=O)OC(C)(C)C)CC4)cc3s2)CC1 [Example 301]
EC50: 345 nM

CCCc1cnc(N2CC[C@H](Oc3nc4ccc(C5=CCN(S(=O)(=O)CCC)CC5)cc4s3)C2)nc1 [Example 115]
EC50: 28.4 nM

CCCc1cnc(N2C[C@@H]3[C@@H](COc4nc5ccc(-c6ccc(S(C)(=O)=O)cc6)cc5s4)[C@@H]3C2)nc1 [Example 266]
EC50: 1080 nM

CCCc1cnc(N2CCC(Oc3nc4ccc(C5=CCN(S(=O)(=O)CCCC(=O)N(CC)CC)CC5)cc4s3)CC2)nc1 [Example 231]
EC50: 2.3 nM

CCCc1cnc(N2CCC(Oc3nc4ccc(C5=CCN(C(=O)c6csnn6)CC5)cc4s3)CC2)nc1 [Example 73]
EC50: 788 nM

CCCc1cnc(N2CCC(Oc3nc4ccc(C5=CCN(C(=O)CC(C)C)CC5)cc4s3)CC2)nc1 [Example 63]
EC50: 292 nM

CCCc1cnc(N2CCC(Nc3nc4ccc(C5=CCN(S(=O)(=O)CCC)CC5)cc4s3)CC2)nc1 [Example 53]
EC50: 283 nM

CC(C)c1noc(N2CCC(Oc3nc4ccc(C5=CCN(S(=O)(=O)CCC(C)(C)O)CC5)cc4s3)CC2)n1 [Example 44, 4-(4-(2-(1-(3-Isopropyl-1,2,4-oxadiazol-5-yl)piperidin-4-yloxy)benzo[d]thiazol-6-yl)-5,6-dihydropyridin-1(2H)-ylsulfonyl)-2-methylbutan-2-ol]
EC50: 7.2 nM

CCCc1cnc(N2CCN(c3nc4ccc(C5=CCN(S(=O)(=O)CC(C)C)CC5)cc4s3)CC2)nc1 [Example 133]
EC50: 169 nM

CCCc1cnc(N2CCC(Oc3nc4ccc(C5=CCN(S(=O)(=O)C[C@@H](C)CO)CC5)cc4s3)CC2)nc1 (single isomer, unassigned) [Example 19]
EC50: 2.3 nM

CCCNC(=O)N1CC=C(c2ccc3nc(OC4CCN(c5ncc(CCC)cn5)CC4)sc3c2)CC1 [Example 194]
EC50: 378 nM

CCCS(=O)(=O)N1CC=C(c2ccc3nc(OC4CCN(S(=O)(=O)C5CC5)CC4)sc3c2)CC1 [Example 22, 2-(1-(Cyclopropylsulfonyl)piperidin-4-yloxy)-6-(1-(propylsulfonyl)-1,2,3,6-tetrahydropyridin-4-yl)benzo[d]thiazole]
EC50: 29.1 nM

CCCc1cnc(N2CCC(Oc3nc4ccc(C5=CCN(S(=O)(=O)CCN6CC(O)C6)CC5)cc4s3)CC2)nc1 [Example 7, 1-(2-(4-(2-(1-(5-Propylpyrimidin-2-yl)piperidin-4-yloxy)benzo[d]thiazol-6-yl)-5,6-dihydropyridin-1(2H)-ylsulfonyl)ethyl)azetidin-3-ol]
EC50: 33.9 nM

CCCS(=O)(=O)N1CC=C(c2ccc3nc(OC4CCN(C(=O)c5csnn5)CC4)sc3c2)CC1 [Example 109]
EC50: 37 nM

CC(C)(O)CCS(=O)(=O)N1CCC(c2ccc3nc(OC4CCN(c5ncc(Cl)cn5)CC4)sc3c2)CC1 [Example 246]
EC50: 3.9 nM

CCCc1cnc(N2CCC(Cc3nc4ccc(C5CCN(S(=O)(=O)CCC)CC5)cc4o3)CC2)nc1 [Example 147]
EC50: 49.3 nM

CN(C)S(=O)(=O)N1CC=C(c2ccc3nc(OC4CCN(c5ncc(F)cn5)CC4)sc3c2)CC1 [Example 49, 4-(2-((1-(5-Fluoropyrimidin-2-yl)piperidin-4-yl)oxy)benzo[d]thiazol-6-yl)-N,N-dimethyl-5,6-dihydropyridine-1(2H)-sulfonamide]
EC50: 7.5 nM

CC(C)(O)CCS(=O)(=O)N1CCN(c2ccc3nc(OC4CCN(c5ncc(F)cn5)CC4)sc3c2)CC1 [Example 216]
EC50: 8.3 nM

CC(C)(O)CCS(=O)(=O)N1CC=C(c2ccc3nc(OC4CCN(c5nc6ccccc6s5)CC4)sc3c2)CC1 [Example 168]
EC50: 3 nM

CCCc1cnc(N2CCC(Oc3nc4ccc(C5=CCN(S(=O)(=O)CCCC(C)(C)O)CC5)cc4s3)CC2)nc1 [Example 114]
EC50: 4.4 nM

CCCc1cnc(N2CCC(Oc3nc4ccc(C5=CCN(S(=O)(=O)CCC6(O)CC6)CC5)cc4s3)CC2)nc1 [Example 131]
EC50: 5 nM

CCCc1cnc(N2CCC(Cc3nc4ccc(C5=CCN(S(=O)(=O)CCC(C)(C)O)CC5)cc4o3)CC2)nc1 [Example 141]
EC50: 9.5 nM

CCCc1cnc(N2CCC(Oc3nc4ccc(C5=CCN(S(=O)(=O)c6cccc(C(=O)O)c6)CC5)cc4s3)CC2)nc1 [Example 79]
EC50: 713 nM

Cc1cc(C)nc(N2CCC(Oc3nc4ccc(-c5ccc(S(C)(=O)=O)cc5)cc4s3)CC2)n1 [Example 296]
EC50: 46.1 nM

CCCc1cnc(N2CC[C@@H](Oc3nc4ccc(C5=CCN(S(C)(=O)=O)CC5)cc4s3)C2)nc1 [Example 84]
EC50: 953 nM

CCCS(=O)(=O)N1CC=C(c2ccc3nc(OCC4[C@H]5CN(Cc6ccccc6)C[C@@H]45)sc3c2)CC1 (stereo partly shown) [Example 127]
EC50: 29 nM

CCCc1cnc(N2CCC(Oc3nc4ccc(C5=CCN(S(=O)(=O)CCCO)CC5)cc4s3)CC2)nc1 [Example 3, 3-(4-(2-(1-(5-Propylpyrimidin-2-yl)piperidin-4-yloxy)benzo[d]thiazol-6-yl)-5,6-dihydropyridin-1(2H)-ylsulfonyl)propan-1-ol]
EC50: 11.1 nM

CCCc1cnc(N2CCC(Oc3nc4ccc(C5=CCN(c6nc(C)cs6)CC5)cc4s3)CC2)nc1 [Example 60]
EC50: 767 nM

CCCS(=O)(=O)N1CC=C(c2ccc3nc(OC4CCN(c5nnc(C)s5)CC4)sc3c2)CC1 [Example 107]
EC50: 21.5 nM

CCCc1cnc(N2CCC(Oc3nc4ccc(C5=CCN(S(=O)(=O)CCCCC[N+](CC)(CC)CC)CC5)cc4s3)CC2)nc1 [Example 32, N,N,N-triethyl-5-(4-(2-(1-(5-propylpyrimidin-2-yl)piperidin-4-yloxy)benzo[d]thiazol-6-yl)-5,6-dihydropyridin-1(2H)-ylsulfonyl)pentan-1-aminium bromide]
EC50: 9.7 nM

COc1cnc(N2CCC(Oc3nc4ccc(C5=CCN(S(=O)(=O)CCCCO)CC5)cc4s3)CC2)nc1 [Example 241]
EC50: 0.4 nM

O=S(=O)(CCCO)N1CCN(c2ccc3nc(OC4CCN(c5ncc(F)cn5)CC4)sc3c2)CC1 [Example 221]
EC50: 13.9 nM

CCCc1cnc(N2CCC(Oc3nc4ccc(N5CCC(C(=O)N6CCCC6)CC5)cc4s3)CC2)nc1 [Example 45, (1-(2-(1-(5-Propylpyrimidin-2-yl)piperidin-4-yloxy)benzo[d]thiazol-6-yl)piperidin-4-yl)(pyrrolidin-1-yl)methanone]
EC50: 463 nM

CCCCOC(=O)N1CC=C(c2ccc3nc(OC4CCN(c5ncc(CCC)cn5)CC4)sc3c2)CC1 [Example 81]
EC50: 142 nM

CCCc1cnc(N2CCC(Nc3nc4ccc(C5=CCN(S(C)(=O)=O)CC5)cc4s3)CC2)nc1 [Example 54]
EC50: 450 nM
